{"source": "paper PMC4669708", "about": "(Cell Death & Disease, 2015)", "key": {"[1]": {"biological_target": "T1, TAB2 (Homo sapiens, UniProt Q9NYJ8)", "T1 sequence (Q9NYJ8 1-693)": "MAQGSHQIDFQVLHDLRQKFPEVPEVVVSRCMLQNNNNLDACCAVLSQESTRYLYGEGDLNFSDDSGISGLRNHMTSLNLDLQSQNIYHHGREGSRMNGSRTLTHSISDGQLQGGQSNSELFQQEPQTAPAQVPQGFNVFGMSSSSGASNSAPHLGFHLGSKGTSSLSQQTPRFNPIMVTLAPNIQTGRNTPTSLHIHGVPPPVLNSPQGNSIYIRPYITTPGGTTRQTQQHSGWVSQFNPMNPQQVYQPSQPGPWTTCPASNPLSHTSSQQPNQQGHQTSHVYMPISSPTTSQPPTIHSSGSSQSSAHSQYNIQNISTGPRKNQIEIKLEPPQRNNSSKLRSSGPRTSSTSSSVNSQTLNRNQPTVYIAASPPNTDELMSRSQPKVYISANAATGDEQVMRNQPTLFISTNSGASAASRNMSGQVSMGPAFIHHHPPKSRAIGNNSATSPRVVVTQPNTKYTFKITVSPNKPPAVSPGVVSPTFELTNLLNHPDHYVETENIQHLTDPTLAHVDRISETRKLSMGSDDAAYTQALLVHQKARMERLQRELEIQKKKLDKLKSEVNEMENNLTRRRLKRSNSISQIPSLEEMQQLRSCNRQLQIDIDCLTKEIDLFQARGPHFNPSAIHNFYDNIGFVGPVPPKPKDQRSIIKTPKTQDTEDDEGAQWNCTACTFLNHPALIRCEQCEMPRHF", "T1 sequence (O43318 1-606 partner)": "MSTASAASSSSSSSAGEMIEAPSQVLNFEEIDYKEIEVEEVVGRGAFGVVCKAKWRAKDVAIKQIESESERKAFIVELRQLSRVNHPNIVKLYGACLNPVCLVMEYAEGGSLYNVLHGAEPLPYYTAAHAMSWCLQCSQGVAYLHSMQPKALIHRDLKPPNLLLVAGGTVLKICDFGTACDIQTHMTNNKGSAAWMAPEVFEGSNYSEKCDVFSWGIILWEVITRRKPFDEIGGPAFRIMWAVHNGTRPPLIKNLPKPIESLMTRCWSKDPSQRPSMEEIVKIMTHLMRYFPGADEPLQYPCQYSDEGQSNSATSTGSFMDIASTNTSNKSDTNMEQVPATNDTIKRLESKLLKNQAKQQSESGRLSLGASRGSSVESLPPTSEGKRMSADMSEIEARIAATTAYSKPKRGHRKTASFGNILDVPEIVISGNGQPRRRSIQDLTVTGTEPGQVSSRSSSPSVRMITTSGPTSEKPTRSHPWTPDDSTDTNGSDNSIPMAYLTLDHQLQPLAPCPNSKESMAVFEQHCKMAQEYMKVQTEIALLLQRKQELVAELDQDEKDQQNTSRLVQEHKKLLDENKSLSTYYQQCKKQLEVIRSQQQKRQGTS", "experiment": "c-ponatinib pulldown LC-MS/MS", "assay_type": "binding", "procedure,_shortened": "(§1)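 Whole cell lysate (10 mg) was first passed over immobilized c-ponatinib, and bound proteins were eluted. After reduction, alkylation and tryptic digestion, the peptides were analysed by LC-MS/MS. Finally, binding specificity was assigned by a combined P-value, with or without free-compound competition.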"}, "[2]": {"biological_target": "T2, MAPK12 (Homo sapiens, UniProt P53778)", "T2 sequence (P53778 1-367)": "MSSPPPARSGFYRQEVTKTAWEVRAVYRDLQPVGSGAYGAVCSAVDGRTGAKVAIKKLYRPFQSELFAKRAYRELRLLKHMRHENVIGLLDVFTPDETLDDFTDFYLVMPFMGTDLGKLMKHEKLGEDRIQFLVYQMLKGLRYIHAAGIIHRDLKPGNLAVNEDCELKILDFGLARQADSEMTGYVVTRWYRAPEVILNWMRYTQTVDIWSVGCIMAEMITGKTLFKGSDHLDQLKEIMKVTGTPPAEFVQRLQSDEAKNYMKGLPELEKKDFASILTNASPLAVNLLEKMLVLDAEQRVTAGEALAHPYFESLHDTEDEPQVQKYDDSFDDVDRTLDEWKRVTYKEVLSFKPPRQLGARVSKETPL", "experiment": "c-ponatinib pulldown LC-MS/MS", "assay_type": "binding", "procedure,_shortened": "as §1"}}, "data": [{"smiles": "Cc1ccc(C(=O)Nc2ccc(CN3CCN(CCCN)CC3)c(C(F)(F)F)c2)cc1C#Cc1cnc2cccnn12", "note": "[c-ponatinib]", "values": [{"measurement": "Av. SC comp.", "setting": "[1]; + free ponatinib", "value": 0}, {"measurement": "Total SC comp.", "setting": "[1]; + free ponatinib", "value": 0}, {"measurement": "Av. SC", "setting": "[1]; no competitor", "value": 2.5}, {"measurement": "Total SC", "setting": "[1]; no competitor", "value": 10}, {"measurement": "Av. SC comp.", "setting": "[2]; + free ponatinib", "value": 3.75}, {"measurement": "Total SC comp.", "setting": "[2]; + free ponatinib", "value": 15}, {"measurement": "Av. SC", "setting": "[2]; no competitor", "value": 10.75}, {"measurement": "Total SC", "setting": "[2]; no competitor", "value": 43}]}]}
